US4759929A, “Novel treatment” (Cabinet Harle & Phelip, priority 1987, dated 1988)

Tests used:
[1] = target: T1, LAV reverse transcriptase (Human immunodeficiency virus type 1 group M subtype B, UniProt P03367); test: Reverse transcriptase assay, LAV virus (non purified RT); format: biochemical, Lymphadenopathy associated virus (LAV); details: for ID50: LAV virus (non purified RT), 1 hour at 37° C.; for Percent inhibition / p. mole incorporated: LAV virus; for p. mole incorporated: control 0.13
T1 construct: made in house; host or cells: LAV virions, PEG concentrated and sucrose gradient purified
Description: Lymphadenopathy associated virus (LAV) was purified. Briefly, after clarification, the virus was concentrated by PEG (10 percent), and then centrifuged for 1.5 hours at 55,000 g (IEC type SB 498 rotor) on a 10 to 60 percent sucrose gradient. Reverse transcriptase assays were performed on each fraction and the maximum RT activity was found at a density of 1.16 and corresponded to the purified virus fraction.
(§1) Assay mixtures are indicated in the legend of Table I. The reaction was stopped by treating the mixtures with sodium pyrophosphate and trichloracetic acid. The results are given as picomoles of tritiated deoxyribonucleotides monophosphate incorporated into DNA after 1 hour at 37° C.
(§2) HPA 23 inhibition of reverse transcriptase of SAIDS virus and LAV.
(§3) Reaction mixture (50 μl) contains: Tris 50 mM pH 7.9, 5 mM MgCl2,
(§4) OD/ml Oligo dT 12-18, and 200 pM ^3 HTTP (25 Ci/mM).

[2] = test system: Friend viruses and the plasma variant of Chirigos virus; details: in vivo; cited from earlier work
pancreatic DNase = pancreatic DNase (Bos taurus, UniProt P00639); test: Inhibition of pancreatic DNase (unpublished results); format: biochemical
Sequence of pancreatic DNase (P00639 23-282): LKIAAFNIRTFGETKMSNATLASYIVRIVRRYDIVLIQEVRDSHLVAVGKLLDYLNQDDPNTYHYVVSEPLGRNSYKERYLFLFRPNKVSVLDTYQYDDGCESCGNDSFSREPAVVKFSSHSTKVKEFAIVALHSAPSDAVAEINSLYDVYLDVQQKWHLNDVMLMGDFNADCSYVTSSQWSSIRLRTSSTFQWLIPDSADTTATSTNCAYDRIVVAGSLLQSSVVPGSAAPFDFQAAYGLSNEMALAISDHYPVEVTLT

[3] = test system: MLV reverse transcriptase; details: previously described; cited from earlier work
E. Coli RNase H = E. Coli RNase H (Escherichia coli, UniProt P0A7Y4); test: Inhibition of E. Coli RNase H (unpublished results); format: biochemical
Sequence of E. Coli RNase H (P0A7Y4 whole entry): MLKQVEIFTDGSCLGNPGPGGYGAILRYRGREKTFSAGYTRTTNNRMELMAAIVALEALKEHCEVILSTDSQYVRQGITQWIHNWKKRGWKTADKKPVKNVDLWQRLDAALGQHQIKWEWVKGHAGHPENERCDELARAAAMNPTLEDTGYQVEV

T4 + Lymphocytes = test: T4+ lymphocytes number in treated patients; format: in vivo, human; details: four patients; after therapy
[4] = test system: mammalian cellular DNA polymerases; details: known; cited from earlier work
encephalomyocarditis = details: mice; cited from earlier work
[5] = target: T2, LAV purified reverse transcriptase (Human immunodeficiency virus type 1 group M subtype B, UniProt P03367); test: Reverse transcriptase assay, LAV purified RT; format: biochemical, Lymphadenopathy associated virus (LAV); details: for p. mole incorporated: control 0.11
T2 construct: made in house
Description: LAV RT was purified. Briefly, 10^9 LAV infected cells were washed two times in PBS, resuspended in Tris 50 mM (pH 7.5) KCl 500 mM, ethylene diamine tetracetic acid (EDTA) 0.1 mM, dithiothreitol 1 mM and glycerol 10 percent, and frozen in liquid nitrogen. After incubation with Triton X100 0.01 percent at 37° C. (15 Min), cell homogenates were centrifuged at 100,000 g for one hour and the supernatant dialyzed six hours (KCl 100 mM). The dialyzate was chromatographed on a phosphocellulse column. RT and DNA polymerases were eluted from the column with a 0.1M to 1M KCl gradient.
as §1, §2, §3, §4

β DNA polymerase = β DNA polymerase (Mus musculus, UniProt Q8K409); details: cited from earlier work
E. Coli RNA polymerases = E. Coli RNA polymerases (Escherichia coli, UniProt P0A8T7+P0A8V2); details: known; cited from earlier work
mouse α DNA polymerase = mouse α DNA polymerase (Mus musculus, UniProt P33609); details: required doses much higher than those inhibiting reverse transcriptase; cited from earlier work
Sequence of mouse α DNA polymerase (P33609 whole entry): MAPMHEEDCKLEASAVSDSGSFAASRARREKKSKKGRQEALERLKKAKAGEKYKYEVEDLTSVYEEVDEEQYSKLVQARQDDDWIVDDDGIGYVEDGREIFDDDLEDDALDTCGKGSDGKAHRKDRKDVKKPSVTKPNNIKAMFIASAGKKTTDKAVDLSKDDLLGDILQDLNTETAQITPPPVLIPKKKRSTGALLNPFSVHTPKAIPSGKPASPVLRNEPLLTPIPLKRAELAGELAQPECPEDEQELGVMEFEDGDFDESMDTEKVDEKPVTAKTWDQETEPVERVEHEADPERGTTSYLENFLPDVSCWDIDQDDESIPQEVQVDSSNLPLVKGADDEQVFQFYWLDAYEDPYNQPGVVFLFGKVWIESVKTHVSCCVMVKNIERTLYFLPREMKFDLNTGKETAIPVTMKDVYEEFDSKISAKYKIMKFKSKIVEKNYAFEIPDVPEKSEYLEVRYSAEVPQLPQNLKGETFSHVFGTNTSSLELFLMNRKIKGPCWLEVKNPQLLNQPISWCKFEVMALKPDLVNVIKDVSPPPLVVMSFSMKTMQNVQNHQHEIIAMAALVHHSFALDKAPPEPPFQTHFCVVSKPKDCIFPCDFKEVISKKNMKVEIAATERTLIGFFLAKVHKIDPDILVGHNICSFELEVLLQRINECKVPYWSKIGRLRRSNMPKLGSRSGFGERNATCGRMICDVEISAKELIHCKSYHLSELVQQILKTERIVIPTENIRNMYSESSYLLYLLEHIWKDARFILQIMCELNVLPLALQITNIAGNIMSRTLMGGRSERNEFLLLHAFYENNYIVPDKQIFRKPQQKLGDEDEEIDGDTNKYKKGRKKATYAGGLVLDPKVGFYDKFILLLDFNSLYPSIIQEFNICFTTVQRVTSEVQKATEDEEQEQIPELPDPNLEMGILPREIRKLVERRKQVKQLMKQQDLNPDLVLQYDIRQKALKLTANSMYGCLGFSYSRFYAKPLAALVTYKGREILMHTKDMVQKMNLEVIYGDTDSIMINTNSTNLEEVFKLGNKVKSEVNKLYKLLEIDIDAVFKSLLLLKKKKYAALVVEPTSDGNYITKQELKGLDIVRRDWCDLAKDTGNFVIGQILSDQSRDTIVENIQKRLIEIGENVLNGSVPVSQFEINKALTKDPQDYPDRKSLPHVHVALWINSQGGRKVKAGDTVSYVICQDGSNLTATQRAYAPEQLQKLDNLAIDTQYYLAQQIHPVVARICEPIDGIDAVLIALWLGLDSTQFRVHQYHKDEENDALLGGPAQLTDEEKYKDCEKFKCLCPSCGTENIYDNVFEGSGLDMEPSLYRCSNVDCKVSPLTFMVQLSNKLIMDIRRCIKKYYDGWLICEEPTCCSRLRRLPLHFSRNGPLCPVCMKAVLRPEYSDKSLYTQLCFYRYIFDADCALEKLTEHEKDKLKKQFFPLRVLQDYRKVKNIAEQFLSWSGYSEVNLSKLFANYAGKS

scrapie = details: mice infected with scrapie; cited from earlier work
E. Coli DNA polymerases = details: known; cited from earlier work
[6] = test system: natural killer (NK) and killer cells (ADCC) function; details: cited from earlier work
[7] = target: T2, LAV purified reverse transcriptase; test: Lineweaver-Burk kinetics, varying poly A oligo dT12-18 template primer concentration; format: biochemical, Lymphadenopathy associated virus (LAV); details: for HPA23 inhibition: LAV purified RT, FIG. 1 legend
Description: The results of the Lineweaver-Burk plots of the effects of varying concentration of poly An oligo dT12-18 at two different HPA23 concentrations are summarized in FIG. 1. In the experimental conditions, kinetic enzymatic parameters are: KM=2.18 nM of polyA oligo dT, Vmax=0.02 pM of 3 HTMP incorporated sec^-1. […] The interaction of HPA23 with the template primer-enzyme complex should take place at the binding site of the template primer.
Lineweaver-Burk representation of the influence of poly A oligo T12-18 template concentration on the inhibition by HPA23 of LAV purified reverse transcriptase
A: picomoles of ^3 H TMP incorporated in five minutes at 37° C.
B: template primer concentration (OD ml^-1)
: control (no inhibition)
: inhibition dose corresponds to 65 percent HPA23 inhibition (19 μg/ml)
inhibition dose corresponds to 80 percent HPA23 inhibition (40 μg/ml)
Each plot-point is the mean of three experiments.

AIDS or related syndrome = test: Clinical features after HPA23 treatment; format: in vivo, human
pancreatic RNase = pancreatic RNase (Bos taurus, UniProt P61823); test: Inhibition of pancreatic RNase (unpublished results); format: biochemical
Sequence of pancreatic RNase (P61823 27-150): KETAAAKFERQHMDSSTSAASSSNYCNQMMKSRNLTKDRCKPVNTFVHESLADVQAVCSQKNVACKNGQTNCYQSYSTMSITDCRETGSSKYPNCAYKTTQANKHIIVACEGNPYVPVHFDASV

cell growth = test: Inhibition of cell growth; format: cell-based
[8] = Pharmacokinetic studies in patient, I.V bolus infusion; format: in vivo, human; details: patient 1; I.V bolus infusion (about two minutes)
[9] = test system: lymphatic choriomeningitis virus; details: adult mice acutely infected; cited from earlier work
[10] = test system: spontaneous mammary tumors; details: C3 HBi mice; cited from earlier work
LAV = test: Isolation of LAV from peripheral blood T cell cultures and cocultures of treated patients (RT activity in supernatant)
[11] = target: SAIDS virus reverse transcriptase (Simian retrovirus SRV-1, UniProt P04025); test: Reverse transcriptase assay, SAIDS virus; format: biochemical, Simian AIDS (SAIDS) virus; details: for Percent inhibition / p. mole incorporated: SAIDS virus; for p. mole incorporated: control 0.43
Sequence of SAIDS virus reverse transcriptase (P04025 913-1497): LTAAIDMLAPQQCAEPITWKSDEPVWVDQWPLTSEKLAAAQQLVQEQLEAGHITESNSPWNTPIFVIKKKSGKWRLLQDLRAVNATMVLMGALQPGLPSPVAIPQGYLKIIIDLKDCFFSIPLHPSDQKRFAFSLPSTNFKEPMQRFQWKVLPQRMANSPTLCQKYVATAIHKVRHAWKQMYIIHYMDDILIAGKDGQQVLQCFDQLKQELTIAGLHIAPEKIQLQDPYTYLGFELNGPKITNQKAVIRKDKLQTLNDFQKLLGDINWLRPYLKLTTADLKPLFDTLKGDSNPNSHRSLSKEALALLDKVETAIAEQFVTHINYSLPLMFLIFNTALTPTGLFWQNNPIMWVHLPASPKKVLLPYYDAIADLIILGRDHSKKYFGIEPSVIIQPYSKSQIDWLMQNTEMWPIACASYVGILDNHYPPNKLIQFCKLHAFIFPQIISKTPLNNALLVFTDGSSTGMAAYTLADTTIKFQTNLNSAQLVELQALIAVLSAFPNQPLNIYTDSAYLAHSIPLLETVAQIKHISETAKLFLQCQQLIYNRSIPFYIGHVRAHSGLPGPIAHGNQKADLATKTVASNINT
Description: Simian AIDS (SAIDS) virus producing cells were provided by Murray Gardner, M.D. and supernatants of cell cultures were concentrated using polyethylene glycol (PEG) 10 percent precipitation. The precipitate was purified on a 20 to 60 percent sucrose gradient (50,000 g, 2.5 hours). Reverse transcriptase assays (see legend Table I) were performed on each fraction from the collected gradient. Maximum RT activity was found at a density of 1.18.
as §1, §2, §3, §4

Q: What does the source list for “Ammonium-9-antimonio-III-21-tungsto-VII-sodate [HPA 23]”?
A: ID50 ([1]; 60 min): 30.5 µg/mL; ID50 ([1]; listed as HPA23, 60 min): 30 µg/mL; Percent inhibition ([1]; inhibitor 10 μg/ml): 2.4%; p. mole incorporated ([1]; inhibitor 10 μg/ml): 0.127 p. mole; Percent inhibition ([1]; inhibitor 25 μg/ml): 18.6%; p. mole incorporated ([1]; inhibitor 25 μg/ml): 0.013 p. mole; Percent inhibition ([1]; inhibitor 50 μg/ml): 84.4%; p. mole incorporated ([1]; inhibitor 50 μg/ml): 0.098 p. mole; Percent inhibition ([1]; inhibitor 60 μg/ml): 100%; p. mole incorporated ([1]; inhibitor 60 μg/ml): 0 p. mole; protection against leukemia [2]: protects; inhibition of pancreatic DNase (pancreatic DNase): does not inhibit; inhibition of MLV reverse transcriptase [3]: competitive inhibitor; inhibition of E. Coli RNase H (E. Coli RNase H): does not inhibit; absolute numbers of T4 + cells and T4 /T8 ratio (T4 + Lymphocytes): did not change significantly; inhibition of mammalian cellular DNA polymerases [4]: strong inhibitor; activity against lethal encephalomyocarditis infections (encephalomyocarditis): some activity; ID50 ([5]; 1 hour at 37° C.): 11 µg/mL; Percent inhibition ([5]; inhibitor 0.5 μg/ml): 4.5%; p. mole incorporated ([5]; inhibitor 0.5 μg/ml): 0.105 p. mole; Percent inhibition ([5]; inhibitor 1 μg/ml): 8.2%; p. mole incorporated ([5]; inhibitor 1 μg/ml): 0.101 p. mole; Percent inhibition ([5]; inhibitor 5 μg/ml): 33.6%; p. mole incorporated ([5]; inhibitor 5 μg/ml): 0.073 p. mole; Percent inhibition ([5]; inhibitor 10 μg/ml): 43.6%; p. mole incorporated ([5]; inhibitor 10 μg/ml): 0.062 p. mole; Percent inhibition ([5]; inhibitor 20 μg/ml): 61.8%; p. mole incorporated ([5]; inhibitor 20 μg/ml): 0.042 p. mole; Percent inhibition ([5]; inhibitor 30 μg/ml): 70.2%; p. mole incorporated ([5]; inhibitor 30 μg/ml): 0.032 p. mole; Percent inhibition ([5]; inhibitor 60 μg/ml): 94%; p. mole incorporated ([5]; inhibitor 60 μg/ml): 0.007 p. mole; Percent inhibition ([5]; inhibitor 100 μg/ml): 100%; p. mole incorporated ([5]; inhibitor 100 μg/ml): 0 p. mole; recovery of the platelet count to the pretreatment value (each adult patient): between 21st day and the 45th day after; platelet toxicity (four patients): some platelet toxicity in three out of four cases; renal toxicity (four patients): No new renal toxicity was observed; recovery of hepatic transaminases to the pretreatment range (patients 2, 3 and 4): ≤ 21 days; elevations of the hepatic transaminases (patients 2, 3 and 4 during treatment): 2 ×normal value; effect on β DNA polymerase (β DNA polymerase): without any effect; inhibition of E. Coli RNA polymerases (E. Coli RNA polymerases): strong inhibitor; inhibition of mouse α DNA polymerase (mouse α DNA polymerase): inhibitor; disease / incubation period (scrapie): can prevent disease or prolong the incubation period; inhibition of E. Coli DNA polymerases (E. Coli DNA polymerases): strong inhibitor; effect on NK and ADCC function [6]: stimulating agent; inhibition mechanism ([7]; LAV RT, versus template primer poly A oligo dT12-18): competitive inhibition; HPA23 inhibition ([7]; 19 μg/ml): 65%; HPA23 inhibition ([7]; 40 μg/ml): 80%; Kaposi's sarcoma evolution (AIDS or related syndrome; patient 3, 4 months outcome): stabilized their mucosal evolutive K.S., without regression; opportunistic infections (AIDS or related syndrome; patient one, one year after the end of HPA23 therapy): did not present anymore other opportunistic infections; inhibition of pancreatic RNase (pancreatic RNase): does not inhibit; dose required to inhibit the cell growth relative to the one blocking RT activity (cell growth): twenty times higher; half life [8]: < 20 min; mortality [9]: reduces the mortality; occurrence of spontaneous mammary tumors [10]: reduces the occurance of spontaneous mammary tumors; LAV detection in T cell cultures (LAV; patient 1, during each period of treatment, I.V bolus, 1 mg/kg to 3.3 mg/kg): LAV could no longer be detected; LAV isolation, even after cocultivation (LAV; patients 1 and 2, one month after the end of the treatment): LAV was not isolated; LAV detection in T cell cocultures (LAV; patients 2, 3 and 4, 30 days after the end of the treatment): LAV was again detected in the T cell cocultures in two of the three patients (3 and 4) at a very low level; LAV isolation from primary cultures and cocultures of patient T cells (LAV; patients 2, 3 and 4, following two weeks treatment, 200 mg IV infusion per day during 15 days): no virus (LAV) was isolated; inhibition mechanism ([11]; SAIDS (monkey) virus enzyme, kinetic studies): competitive inhibition; ID50 ([11]; SAIDS virus RT, 1 hour at 37° C.): 1.1 µg/mL; Percent inhibition ([11]; inhibitor 0.5 μg/ml): 21%; p. mole incorporated ([11]; inhibitor 0.5 μg/ml): 0.34 p. mole; Percent inhibition ([11]; inhibitor 1 μg/ml): 35%; p. mole incorporated ([11]; inhibitor 1 μg/ml): 0.28 p. mole; Percent inhibition ([11]; inhibitor 2.5 μg/ml): 80%; p. mole incorporated ([11]; inhibitor 2.5 μg/ml): 0.09 p. mole; Percent inhibition ([11]; inhibitor 5 μg/ml): 94.5%; p. mole incorporated ([11]; inhibitor 5 μg/ml): 0.024 p. mole; Percent inhibition ([11]; inhibitor 10 μg/ml): 99.5%; p. mole incorporated ([11]; inhibitor 10 μg/ml): 0.0025 p. mole; Percent inhibition ([11]; inhibitor 25 μg/ml): 100%; p. mole incorporated ([11]; inhibitor 25 μg/ml): 0 p. mole
